According to the supplement of paper PMC11451515:

Test system: P12-Ichikawa
Assay: cell viability relative to DMSO control; higher = less cytotoxic
Conditions: 48 h
Summary of the method: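 Viability was expressed as a per-plate percentage of DMSO wells, with cell-free wells as background. Leukemia cells (NOMO1 or SEM at 500 cells/well, P12-Ichikawa at 1000 cells/well) were adapted for at least four passages in each medium and seeded in 1536-well plates (5 μl). Library compounds in DMSO were pin-dosed over an 11-point threefold series from 47 μM to 0.79 nM, and CellTiter-Glo One luminescence was read after 48 h at 37°C.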

[1] = HPLM + 10% dialyzed FBS, 0.000781 µM
[2] = HPLM + 10% dialyzed FBS, 0.00234 µM
[3] = HPLM + 10% dialyzed FBS, 0.00702 µM
[4] = HPLM + 10% dialyzed FBS, 0.0211 µM
[5] = HPLM + 10% dialyzed FBS, 0.0632 µM
[6] = HPLM + 10% dialyzed FBS, 0.19 µM
[7] = HPLM + 10% dialyzed FBS, 0.569 µM
[8] = HPLM + 10% dialyzed FBS, 1.71 µM
[9] = HPLM + 10% dialyzed FBS, 5.12 µM
[10] = HPLM + 10% dialyzed FBS, 15.4 µM
[11] = HPLM + 10% dialyzed FBS, 46.1 µM
[12] = RPMI 5 mM glucose + 10% FBS, 0.000781 µM
[13] = RPMI 5 mM glucose + 10% FBS, 0.00234 µM
[14] = RPMI 5 mM glucose + 10% FBS, 0.00702 µM
[15] = RPMI 5 mM glucose + 10% FBS, 0.0211 µM
[16] = RPMI 5 mM glucose + 10% FBS, 0.0632 µM
[17] = RPMI 5 mM glucose + 10% FBS, 0.19 µM
[18] = RPMI 5 mM glucose + 10% FBS, 0.569 µM
[19] = RPMI 5 mM glucose + 10% FBS, 1.71 µM
[20] = RPMI 5 mM glucose + 10% FBS, 5.12 µM
[21] = RPMI 5 mM glucose + 10% FBS, 15.4 µM
[22] = RPMI 5 mM glucose + 10% FBS, 46.1 µM
[23] = RPMI 5 mM glucose + 10% dialyzed FBS, 0.000781 µM
[24] = RPMI 5 mM glucose + 10% dialyzed FBS, 0.00234 µM
[25] = RPMI 5 mM glucose + 10% dialyzed FBS, 0.00702 µM
[26] = RPMI 5 mM glucose + 10% dialyzed FBS, 0.0211 µM
[27] = RPMI 5 mM glucose + 10% dialyzed FBS, 0.0632 µM
[28] = RPMI 5 mM glucose + 10% dialyzed FBS, 0.19 µM
[29] = RPMI 5 mM glucose + 10% dialyzed FBS, 0.569 µM
[30] = RPMI 5 mM glucose + 10% dialyzed FBS, 1.71 µM
[31] = RPMI 5 mM glucose + 10% dialyzed FBS, 5.12 µM
[32] = RPMI 5 mM glucose + 10% dialyzed FBS, 15.4 µM
[33] = RPMI 5 mM glucose + 10% dialyzed FBS, 46.1 µM

Compound	cell viability [1]	cell viability [2]	cell viability [3]	cell viability [4]	cell viability [5]	cell viability [6]	cell viability [7]	cell viability [8]	cell viability [9]	cell viability [10]	cell viability [11]	cell viability [12]	cell viability [13]	cell viability [14]	cell viability [15]	cell viability [16]	cell viability [17]	cell viability [18]	cell viability [19]	cell viability [20]	cell viability [21]	cell viability [22]	cell viability [23]	cell viability [24]	cell viability [25]	cell viability [26]	cell viability [27]	cell viability [28]	cell viability [29]	cell viability [30]	cell viability [31]	cell viability [32]	cell viability [33]
NCC/1=C/NC(=S)N1[C@H]2CCC3=C(F)C=C(F)C=C3C2	127%	114%	114%	126%	123%	121%	119%	121%	113%	111%	92.5%	134%	125%	124%	120%	129%	132%	139%	127%	121%	116%	92.5%	124%	117%	128%	126%	120%	120%	119%	119%	117%	110%	72.7%
N[S+](=O)([O-])c1cc2c(cc1Cl)NCN[S+]2(=O)[O-]	94.4%	103%	104%	110%	112%	116%	116%	113%	111%	110%	104%	111%	115%	110%	125%	118%	126%	126%	121%	108%	118%	120%	110%	106%	108%	105%	116%	105%	111%	116%	118%	107%	104%
CCC1=C2CN3C(=O)\C4=C(/C=C3/C2=NC5=CC=C(O)C=C15)[C@@](O)(CC)C(=O)OC4	97%	95%	33.6%	14.5%	9.38%	6.95%	6.95%	4.6%	5.03%	4.34%	4.16%	93.6%	91.9%	28.2%	10.6%	8.05%	6.33%	6.06%	5.12%	4.73%	4.49%	4.85%	98.3%	83.8%	30.2%	15.1%	11%	7.31%	6.37%	5.25%	5.83%	5.8%	5%
CNCCN(C)Cc1c[nH]nc1-c1ccc(O[C@H]2C[C@H](OCCC3CCOCC3)C2)cc1	104%	120%	124%	119%	122%	122%	135%	123%	95.1%	90.1%	118%	–	–	–	–	–	–	–	–	–	–	–	–	–	–	–	–	–	–	–	–	–	–
C=C1C(=O)O[C@@H]2[C@H]3O[C@]3(C)CC/C=C(\C)CC[C@@H]12	106%	104%	114%	114%	119%	124%	122%	79.6%	5.39%	2.97%	2.95%	103%	109%	117%	117%	127%	127%	125%	101%	13.5%	3.52%	2.86%	105%	112%	118%	125%	127%	123%	121%	91.8%	5.63%	2.98%	2.57%
C[C@]12CCC(=O)C(O)=C1CC[C@@H]1[C@@H]2CC[C@]2(C)C(=O)CC[C@@H]12	122%	125%	122%	119%	119%	122%	128%	117%	120%	111%	104%	–	–	–	–	–	–	–	–	–	–	–	112%	124%	132%	121%	121%	115%	130%	126%	101%	108%	104%
Cc1nc(C(=O)NCC(=O)O)c(O)c2ccc(Oc3ccccc3)cc12	111%	97.3%	107%	105%	113%	91.4%	98.4%	99.5%	94.8%	102%	98.7%	107%	111%	115%	105%	110%	102%	110%	101%	103%	99.2%	85.5%	99.4%	101%	102%	104%	101%	98.8%	101%	94.8%	96.9%	93.6%	77%
NC/1=N/C(=O)C2=C([NH]C=C2CCC3=CC=C(C=C3)C(=O)N[C@@H](CCC(O)=O)C(O)=O)N1	106%	109%	106%	107%	99.8%	114%	105%	64.4%	35.4%	29.3%	28.2%	102%	113%	108%	107%	110%	108%	96.9%	90%	64.5%	54.9%	47.5%	96.5%	106%	103%	103%	104%	104%	99.1%	88.4%	56.1%	48.1%	44.4%
CN1CCN(c2cc(C(=O)Nc3ccc4c(c3)-c3c(c(C(N)=O)nn3-c3ccc(F)cc3)CC4)c(Cl)cn2)CC1	115%	109%	102%	114%	114%	107%	105%	98.1%	104%	95%	3.56%	113%	111%	116%	113%	109%	120%	107%	102%	103%	104%	12%	113%	107%	122%	111%	124%	109%	105%	100%	104%	102%	5.67%
CN1\C(=C(O)/C2=C(C=C(Cl)S2)[S+]1([O-])=O)C(=O)NC3=NC=CC=C3	125%	123%	118%	107%	122%	119%	113%	112%	110%	104%	100%	124%	125%	118%	116%	128%	114%	121%	128%	123%	118%	106%	121%	119%	125%	115%	114%	118%	121%	117%	104%	98.1%	96.2%
Cc1cccc(Nc2nc(N[C@@H]3CCCC[C@@H]3N)ncc2C(N)=O)c1	110%	113%	121%	117%	119%	116%	114%	30.9%	11%	10.8%	14.5%	120%	107%	110%	102%	117%	97.9%	107%	103%	35.1%	13.7%	14.7%	103%	108%	123%	123%	121%	127%	125%	80.5%	24.3%	23.3%	27.5%
Cc1n[nH]c2ccc(-c3cncc(OC[C@@H](N)Cc4c[nH]c5ccccc45)c3)cc12	–	–	–	–	–	–	–	–	–	–	–	108%	114%	100%	98.9%	88.5%	70.2%	80.3%	35.5%	17.8%	2.32%	1.05%	107%	119%	105%	108%	96.9%	74.8%	64%	38.5%	27.1%	2.44%	1.33%
COc1cc([C@@H]2c3cc4c(cc3[C@@H](O)C3COC(=O)C32)OCO4)cc(OC)c1O (stereo partly drawn)	86.8%	92.3%	88.4%	9.03%	95.5%	38.3%	9.82%	8.57%	5.22%	5.25%	4.78%	80.2%	–	92.1%	10.5%	102%	56.8%	14.4%	7.77%	6.85%	4.81%	5.33%	77.1%	91.5%	94.6%	22.6%	94.5%	63.7%	19%	12.9%	9.44%	7.81%	5.82%
Cc1n[nH]c(C)c1Cc1sc2c(c1C(=O)N1C[C@H](O)CO1)c(=O)n(C)c(=O)n2CC(C)C	116%	117%	119%	121%	109%	98.8%	93.4%	92.6%	94.3%	91.4%	83.4%	117%	118%	131%	120%	109%	107%	95.6%	95.8%	84.3%	89.9%	83.8%	113%	118%	114%	114%	107%	98.2%	91.6%	92%	94%	88.5%	83.7%
CCCCc1ccc(N[S+](=O)([O-])c2ccc(C)c(C(=O)N3CCN(c4cccc(C)c4C)CC3)c2)cc1	125%	125%	122%	96.6%	118%	125%	121%	122%	120%	105%	106%	–	–	–	–	–	–	–	–	–	–	–	–	–	–	–	–	–	–	–	–	–	–
COC1=CC2=C(C=C1CC3=C(F)C(=CC=C3)Cl)C(=O)\C(=C/N2[C@H](CO)C(C)C)C(O)=O	125%	123%	122%	107%	121%	119%	114%	115%	110%	95.9%	13.4%	–	–	–	–	–	–	–	–	–	–	–	116%	125%	124%	117%	125%	121%	119%	112%	103%	67.3%	10%
O=C1CCc2cc(OCCCCc3nnnn3C3CCCCC3)ccc2N1	90.5%	92.6%	87.5%	95.7%	96.4%	97.6%	94.2%	95.6%	96%	97.4%	96.9%	78.9%	93.8%	89.2%	81%	91.2%	94.2%	98.1%	95.8%	85.2%	98.5%	99.2%	90.2%	88.1%	90%	94.6%	88.4%	91.8%	95.9%	90.2%	89.6%	88.1%	87.1%
